This passage reports Ki results from patent publication US8710076B2, “2,5-disubstituted piperidine orexin receptor antagonists” (Merck Sharp & Dohme Corp., priority 2008, dated 2014).

The target in this assay is orexin-2 receptor (OX2R) (Homo sapiens (Human), UniProt O43614). The assay is described as follows: radioligand binding assay, membranes from CHO cells expressing OX2. The conditions noted are these: membranes prepared from CHO cells expressing OX2. As for the experimental part: The utility of the compounds in accordance with the present invention as orexin receptor OX1R and/or OX2R antagonists may be readily determined without undue experimentation by methodology well known in the art, including the “FLIPR Ca^2+Flux Assay” (Okumura et al., Biochem. Biophys. Res. Comm. 280:976-981, 2001). In a typical experiment the OX1 and OX2 receptor antagonistic activity of the compounds of the present invention was determined in accordance with the following experimental method. For intracellular calcium measurements, Chinese hamster ovary (CHO) cells expressing the rat OX1 receptor or the human OX2 receptor, are grown in Iscove's modified DMEM containing 2 mM L-glutamine, […], 1% hypoxanthine-thymidine supplement, 100 U/ml penicillin, 100 ug/ml streptomycin and 10% heat-inactivated fetal calf serum (FCS). The cells are seeded at 20,000 cells/well into Becton-Dickinson black 384-well clear bottom sterile plates coated with poly-D-lysine. All reagents were from GIBCO-Invitrogen Corp. The seeded plates are incubated overnight at 37° C. and 5% CO2. Ala-6,12 human orexin-A as the agonist is prepared as a 1 mM stock solution in 1% bovine serum albumin (BSA) and diluted in assay buffer (HBSS containing 20 mM HEPES, 0.1% BSA and 2.5 mM probenecid, pH7.4) for use in the assay at a final concentration of 70 pM. Test compounds are prepared as 10 mM stock solution in DMSO, then diluted in 384-well plates, first in DMSO, then assay buffer. On the day of the assay, cells are washed 3 times with 100 ul assay buffer and then incubated for […] (37° C., 5% CO2) in 60 ul assay buffer containing 1 uM Fluo-4AM ester, 0.02% pluronic acid, and 1% BSA. The dye loading solution is then aspirated and cells are washed 3 times with 100 ul assay buffer. 30 ul of that same buffer is left in each well. Within the Fluorescent Imaging Plate Reader (FLIPR, Molecular Devices), test compounds are added to the plate in a volume of 25 ul, incubated for 5 min and finally 25 ul of agonist is added. Fluorescence is measured for each well at 1 second intervals for 5 minutes and the height of each fluorescence peak is compared to the height of the fluorescence peak induced by 70 pM Ala-6,12 orexin-A with buffer in place of antagonist. […] Alternatively, compound potency can be assessed by a radioligand binding assay (described in Bergman et. al. Bioorg. Med. Chem. Lett. 2008, 18, 1425-1430) in which the inhibition constant (Ki) is determined in membranes prepared from CHO cells expressing either the orexin-1 (OX1) or orexin-2 (OX2) receptor. The intrinsic orexin receptor antagonist activity of a compound which may be used in the present invention may be determined by these assays.
orexin-2 receptor (OX2R), sequence (O43614 whole entry): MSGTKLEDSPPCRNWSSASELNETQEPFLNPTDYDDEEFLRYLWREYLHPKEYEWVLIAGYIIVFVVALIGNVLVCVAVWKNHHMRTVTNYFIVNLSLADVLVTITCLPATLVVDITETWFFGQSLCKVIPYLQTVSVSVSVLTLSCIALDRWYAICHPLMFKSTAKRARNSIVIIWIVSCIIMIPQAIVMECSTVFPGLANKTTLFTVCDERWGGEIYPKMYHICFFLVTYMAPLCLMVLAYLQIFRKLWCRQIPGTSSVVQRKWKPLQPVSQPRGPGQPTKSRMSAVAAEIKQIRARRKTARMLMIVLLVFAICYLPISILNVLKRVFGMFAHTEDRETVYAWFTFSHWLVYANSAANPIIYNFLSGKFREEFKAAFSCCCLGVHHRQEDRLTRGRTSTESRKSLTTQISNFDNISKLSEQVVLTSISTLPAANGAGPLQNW

`C[C@@H]1CC[C@@H](Oc2cccc3ocnc23)CN1C(=O)c1ccccc1-n1nccn1` (mixture of isomers) [1-1, (2R,5R)- and (2S,5S)-4-({6-methyl-1-[2-(2H-1,2,3-triazol-2-yl)benzoyl]piperidin-3-yl}oxy)-l,3-benzoxazole]: the affinity corresponds to a Ki of 18300 pM.
The same measure for `Cc1ccc(-n2nccn2)c(C(=O)N2C[C@H](Nc3nccc4ccccc34)CC[C@H]2C)c1` [H-4, N-{(2R,5R)-6-methyl-1-[5-methyl-2-(2H-1,2,3-triazol-2-yl)benzoyl]piperidin-3-yl}isoquinolin-1-amine]: 560 pM; for `C[C@@H]1CC[C@@H](Oc2ccnc3c(F)cccc23)CN1C(=O)c1ccccc1-n1nccn1` [E-2]: 550 pM.
The compound `C[C@@H]1CC[C@@H](Oc2nccc3ccccc23)CN1C(=O)c1ccccc1-n1nccn1` [F-2, 1-({(2R,5R)-6-methyl-1-[2-(2H-1,2,3-triazol-2-yl)benzoyl]piperidin-3-yl}oxy)-isoquinoline] gave a Ki of 110 pM.

The Ki is a measure of affinity in units of concentration, obtained from inhibition or displacement. A higher Ki goes with lower affinity.
